Article PMC7101356, “Cross-site and cross-platform variability of automated patch clamp assessments of drug effects on human cardiac currents in recombinant cells” (Scientific Reports, 2020)
pIC50: −log10 of the molar value. Where two headings read alike, the source gives them in different places.

Legend:
peak hNav1.5 = biological target: T1, peak hNav1.5 (Homo sapiens, UniProt Q14524); experiment: Automated patch clamp, peak hNav1.5 current block; assay type: cell-based
T1 construct: expressed in transfected cells; host or cells: HEK293 or CHO, depending on site

late hNav1.5 = biological target: T2, late hNav1.5 (Homo sapiens, UniProt Q14524); experiment: Automated patch clamp, late hNav1.5 current block (ATX-II activated); assay type: cell-based; details: for IC50: read-out: log IC50, late hNav1.5 inhibition (converted)
T2 construct: expressed in transfected cells; host or cells: HEK293 or CHO, depending on site
Protocol: However, all external solutions contained 30 nM ATX-II in order to activate late current. Late current was measured at its maximum during the repolarizing ramp.
Concentration-response relationships for each test article were independently investigated, i.e., each cell received only one test article, typically evaluating multiple concentrations in a cumulative fashion (lowest to highest concentrations). However, some platforms tested only one concentration per well. Each concentration response was based on a minimum of four concentrations, with a minimum of three wells used for each concentration. In cases of high variability, more cells per concentration were recorded. Prior to drug addition, cells received an addition of vehicle to measure non-test article-related effects such as addition artifacts. At the end of the experiment, a supramaximal concentration of a known inhibitory reference compound was applied to assess leak current and appropriate responsiveness of the test system.
(§1) The steady state current at each concentration was used to determine the concentration-response relationships. Mean concentration-response data were fitted to a standard sigmoidal four-parameter logistic equation (GraphPad Prism 7; GraphPad Inc., La Jolla, CA) of the form: Y=Bottom+(Top−Bottom)/(1+10^∧(LogIC50−X)∗HillSlope) where Y is the current inhibition (in % of pre-drug control), X is the logarithm of drug concentration, and IC50 is the drug concentration producing half-maximal current inhibition. Curve fitting was performed using the following constraints: Top = 100%, Bottom = 0%, Hill Slope <2. No curve fitting was performed in cases with an obvious lack of a concentration-dependent current inhibition and/or small effect size (approximately ≤20%).

hERG = hERG (Homo sapiens, UniProt Q12809); experiment: Automated patch clamp, hERG current block, Milnes protocol (site s06); assay type: cell-based; parameters: expressed in transfected cells; host or cells: HEK293 or CHO, depending on site (site s06, Milnes protocol: HEK293); details: s06_p4, HEK293, 22–24 °C
Description: Thus, a single test site (s06) elicited hERG current with a 10-s depolarizing voltage step from −80 mV to 0 mV every 25 s (Milnes protocol, see Milnes et al.[14]).
as §1
This protocol consists of a set of two 25-s-long pulse protocols, with one protocol (“Pulse”) containing a prolonged 10-s-long depolarizing test pulse (0 mV) followed by a 14-s-long return pulse to −80 mV, and a second protocol “No-Pulse” consisting of the same pulse structure without the depolarizing test pulse[18].

hCav1.2 = hCav1.2 (Homo sapiens, UniProt Q13936); experiment: Automated patch clamp, hCav1.2 current block; details: log IC50, half-maximal inhibitory concentration, site s04_p3
Protocol: Peak current was measured during the step to 0 mV. Leak current was measured after applying a saturating concentration of a blocker such as cadmium (200 µM) at the end of each experiment to completely block hCav1.2 current.
Concentration-response relationships for each test article were independently investigated, i.e., each cell received only one test article, typically evaluating multiple concentrations in a cumulative fashion (lowest to highest concentrations). However, some platforms tested only one concentration per well. Each concentration response was based on a minimum of four concentrations, with a minimum of three wells used for each concentration. In cases of high variability, more cells per concentration were recorded. Prior to drug addition, cells received an addition of vehicle to measure non-test article-related effects such as addition artifacts. At the end of the experiment, a supramaximal concentration of a known inhibitory reference compound was applied to assess leak current and appropriate responsiveness of the test system. While it was recommended that a separate group of cells (n ≥ 3) be recorded for each experimental day to determine the baseline response to vehicle and to address day-to-day variability, this was not verified.
These criteria were applied to all APC platforms.
as §1

[1] = site_platform s06_p4, 1.00E-05 mol/L
[2] = site_platform s06_p4, 3.00E-07 mol/L
[3] = site_platform s07_p6, 1.00E-05 mol/L
[4] = site_platform s07_p6, 3.00E-07 mol/L
[5] = site_platform s13_p2, 1.00E-05 mol/L
[6] = site_platform s13_p2, 3.00E-07 mol/L
[7] = site_platform s14_p1, 1.00E-05 mol/L
[8] = site_platform s14_p1, 3.00E-07 mol/L

T1 sequence (Q14524 whole entry): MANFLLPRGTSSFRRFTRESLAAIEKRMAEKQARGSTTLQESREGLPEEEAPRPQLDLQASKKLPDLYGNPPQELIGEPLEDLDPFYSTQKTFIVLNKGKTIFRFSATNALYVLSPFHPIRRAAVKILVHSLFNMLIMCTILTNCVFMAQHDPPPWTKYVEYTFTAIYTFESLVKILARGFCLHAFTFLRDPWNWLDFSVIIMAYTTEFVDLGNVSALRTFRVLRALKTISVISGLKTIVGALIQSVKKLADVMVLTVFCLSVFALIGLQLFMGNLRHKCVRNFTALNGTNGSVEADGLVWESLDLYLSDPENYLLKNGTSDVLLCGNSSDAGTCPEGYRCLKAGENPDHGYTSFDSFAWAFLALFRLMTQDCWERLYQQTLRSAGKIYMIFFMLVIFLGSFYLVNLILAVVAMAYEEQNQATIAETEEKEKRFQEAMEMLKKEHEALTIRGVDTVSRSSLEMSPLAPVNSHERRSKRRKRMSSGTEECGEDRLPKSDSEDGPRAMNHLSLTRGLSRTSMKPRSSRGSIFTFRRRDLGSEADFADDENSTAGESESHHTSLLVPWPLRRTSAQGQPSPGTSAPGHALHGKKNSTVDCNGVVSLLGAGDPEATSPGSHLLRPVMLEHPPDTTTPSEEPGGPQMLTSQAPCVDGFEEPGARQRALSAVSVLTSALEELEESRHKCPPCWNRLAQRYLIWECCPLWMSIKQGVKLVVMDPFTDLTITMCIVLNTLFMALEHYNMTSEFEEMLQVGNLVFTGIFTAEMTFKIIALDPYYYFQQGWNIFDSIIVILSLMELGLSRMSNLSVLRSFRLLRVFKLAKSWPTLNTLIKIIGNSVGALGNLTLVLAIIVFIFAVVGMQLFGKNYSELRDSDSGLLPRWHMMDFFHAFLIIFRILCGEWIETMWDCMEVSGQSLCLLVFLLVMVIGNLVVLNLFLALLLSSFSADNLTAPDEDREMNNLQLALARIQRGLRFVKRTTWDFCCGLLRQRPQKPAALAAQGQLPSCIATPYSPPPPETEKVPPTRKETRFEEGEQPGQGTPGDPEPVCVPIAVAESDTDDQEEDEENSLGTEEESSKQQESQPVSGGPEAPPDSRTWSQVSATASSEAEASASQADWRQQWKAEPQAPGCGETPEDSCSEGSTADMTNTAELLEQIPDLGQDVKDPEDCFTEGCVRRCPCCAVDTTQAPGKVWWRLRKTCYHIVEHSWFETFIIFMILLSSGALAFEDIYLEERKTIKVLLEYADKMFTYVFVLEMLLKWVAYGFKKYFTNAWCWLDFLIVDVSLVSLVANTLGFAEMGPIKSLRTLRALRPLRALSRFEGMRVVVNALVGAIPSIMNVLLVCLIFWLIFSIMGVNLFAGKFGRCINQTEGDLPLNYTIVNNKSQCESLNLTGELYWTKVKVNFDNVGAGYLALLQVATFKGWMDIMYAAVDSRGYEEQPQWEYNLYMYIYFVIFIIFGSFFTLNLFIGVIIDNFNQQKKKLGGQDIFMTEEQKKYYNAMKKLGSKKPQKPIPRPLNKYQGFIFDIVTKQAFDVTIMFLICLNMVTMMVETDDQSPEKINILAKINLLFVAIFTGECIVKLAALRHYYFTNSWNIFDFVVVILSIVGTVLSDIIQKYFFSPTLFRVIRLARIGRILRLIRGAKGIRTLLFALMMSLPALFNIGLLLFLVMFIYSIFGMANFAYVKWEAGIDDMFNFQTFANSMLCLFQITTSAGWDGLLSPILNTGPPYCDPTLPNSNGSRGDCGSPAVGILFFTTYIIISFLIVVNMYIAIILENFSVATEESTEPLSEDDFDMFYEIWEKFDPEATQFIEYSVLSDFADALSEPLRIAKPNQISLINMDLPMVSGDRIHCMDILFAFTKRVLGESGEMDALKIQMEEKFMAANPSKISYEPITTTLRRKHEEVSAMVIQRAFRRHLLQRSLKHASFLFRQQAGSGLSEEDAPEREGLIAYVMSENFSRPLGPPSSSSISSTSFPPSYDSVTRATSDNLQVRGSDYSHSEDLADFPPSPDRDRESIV
T2 sequence (Q14524 whole entry): as above

## Cc1nccn1CC1CCc2c(c3ccccc3n2C)C1=O (stereo not shown) [ond, ondansetron]
Peak hNav1.5; no inhibition = no obvious concentration-dependent current block and/or no curve fitting performed, all sites
  peak hNav1.5 Na+ current inhibition (result in words): no inhibition
Peak hNav1.5; site_platform s01_p1
  log IC50, peak hNav1.5 Na+ current inhibition: no inh.
Peak hNav1.5; site_platform s01_p1, 1.00E-05 mol/L
  Peak hNav1.5 Na+ current inhibition, Mean: 56.4%
Peak hNav1.5; site_platform s01_p1, 3.00E-07 mol/L
  Peak hNav1.5 Na+ current inhibition, Mean: 31.6%
Peak hNav1.5; site_platform s02_p2
  log IC50, peak hNav1.5 Na+ current inhibition: no inh.
Peak hNav1.5; site_platform s02_p2, 1.00E-05 mol/L
  Peak hNav1.5 Na+ current inhibition, Mean: 9.4%
Peak hNav1.5; site_platform s02_p2, 3.00E-07 mol/L
  Peak hNav1.5 Na+ current inhibition, Mean: 1.4%
Peak hNav1.5; site_platform s04_p3
  log IC50, peak hNav1.5 Na+ current inhibition: no inh.
Peak hNav1.5; site_platform s04_p3, 1.00E-05 mol/L
  Peak hNav1.5 Na+ current inhibition, Mean: 19.5%
Peak hNav1.5; site_platform s04_p3, 3.00E-07 mol/L
  Peak hNav1.5 Na+ current inhibition, Mean: 4.4%
Peak hNav1.5; site_platform s06_p4
  log IC50, peak hNav1.5 Na+ current inhibition: no inh.
Peak hNav1.5; [1]
  Peak hNav1.5 Na+ current inhibition, Mean: 19.0%
Peak hNav1.5; [2]
  Peak hNav1.5 Na+ current inhibition, Mean: 0.4%
Peak hNav1.5; site_platform s07_p6
  log IC50, peak hNav1.5 Na+ current inhibition: no inh.
Peak hNav1.5; [3]
  Peak hNav1.5 Na+ current inhibition, Mean: 17.1%
Peak hNav1.5; [4]
  Peak hNav1.5 Na+ current inhibition, Mean: 1.7%
Peak hNav1.5; site_platform s10_p3
  log IC50, peak hNav1.5 inhibition: no inh.
Peak hNav1.5; site_platform s10_p3, 1.00E-05 mol/L
  Peak hNav1.5 Na+ current inhibition, Mean: 20.6%
Peak hNav1.5; site_platform s10_p3, 3.00E-07 mol/L
  Peak hNav1.5 Na+ current inhibition, Mean: 0.1%
Peak hNav1.5; site_platform s11_p1
  log IC50, peak hNav1.5 inhibition: no inh.
Peak hNav1.5; site_platform s11_p1, 1.00E-05 mol/L
  Peak hNav1.5 Na+ current inhibition, Mean: 15.2%
Peak hNav1.5; site_platform s11_p1, 3.00E-07 mol/L
  Peak hNav1.5 Na+ current inhibition, Mean: 6.1%
Peak hNav1.5; site_platform s12_p2
  log IC50, peak hNav1.5 inhibition: no inh.
Peak hNav1.5; site_platform s12_p2, 1.00E-05 mol/L
  Peak hNav1.5 Na+ current inhibition, Mean: 12.2%
Peak hNav1.5; site_platform s12_p2, 3.00E-07 mol/L
  Peak hNav1.5 Na+ current inhibition, Mean: 3.0%
Peak hNav1.5; site_platform s13_p2
  log IC50, peak hNav1.5 inhibition: no inh.
Peak hNav1.5; [5]
  Peak hNav1.5 Na+ current inhibition, Mean: 7.0%
Peak hNav1.5; [6]
  Peak hNav1.5 Na+ current inhibition, Mean: -3.4%
Peak hNav1.5; site_platform s14_p1
  log IC50, peak hNav1.5 inhibition: no inh.
Peak hNav1.5; [7]
  Peak hNav1.5 Na+ current inhibition, Mean: 21.3%
Peak hNav1.5; [8]
  Peak hNav1.5 Na+ current inhibition, Mean: 3.9%
Peak hNav1.5; site_platform s15_p1
  log IC50, peak hNav1.5 inhibition: no inh.
Peak hNav1.5; site_platform s15_p1, 1.00E-05 mol/L
  Peak hNav1.5 Na+ current inhibition, Mean: 43.9%
Peak hNav1.5; site_platform s15_p1, 3.00E-07 mol/L
  Peak hNav1.5 Na+ current inhibition, Mean: 11.8%
Peak hNav1.5; site_platform s16_p3
  log IC50, peak hNav1.5 inhibition: no inh.
Peak hNav1.5; site_platform s16_p3, 1.00E-05 mol/L
  Peak hNav1.5 Na+ current inhibition, Mean: 14.4%
Peak hNav1.5; site_platform s16_p3, 3.00E-07 mol/L
  Peak hNav1.5 Na+ current inhibition, Mean: 2.8%
Peak hNav1.5; site_platform s17_p1
  log IC50, peak hNav1.5 inhibition: no inh.
Peak hNav1.5; site_platform s17_p1, 1.00E-05 mol/L
  Peak hNav1.5 Na+ current inhibition, Mean: 33.4%
Peak hNav1.5; site_platform s17_p1, 3.00E-07 mol/L
  Peak hNav1.5 Na+ current inhibition, Mean: -17.0%
Peak hNav1.5; site_platform s18_p1
  log IC50, peak hNav1.5 inhibition: no inh.
Peak hNav1.5; site_platform s18_p1, 1.00E-05 mol/L
  Peak hNav1.5 Na+ current inhibition, Mean: 29.7%
Peak hNav1.5; site_platform s18_p1, 3.00E-07 mol/L
  Peak hNav1.5 Na+ current inhibition, Mean: 27.5%
Peak hNav1.5; site_platform s19_p3
  log IC50, peak hNav1.5 inhibition: no inh.
Peak hNav1.5; site_platform s19_p3, 1.00E-05 mol/L
  Peak hNav1.5 Na+ current inhibition, Mean: 24.0%
Peak hNav1.5; site_platform s19_p3, 3.00E-07 mol/L
  Peak hNav1.5 Na+ current inhibition, Mean: 3.5%
Late hNav1.5; site_platform s06_p4
  nH, Hill slope, late hNav1.5 inhibition: 1.28
  IC50: 6.92 µM
Late hNav1.5; [1]
  Late hNav1.5 Na+ current inhibition, Mean: 61.7%
Late hNav1.5; [2]
  Late hNav1.5 Na+ current inhibition, Mean: 0.5%
Late hNav1.5; site_platform s07_p6
  nH, Hill slope, late hNav1.5 inhibition: 1.57
  IC50: 10.2 µM
Late hNav1.5; [3]
  Late hNav1.5 Na+ current inhibition, Mean: 47.6%
Late hNav1.5; [4]
  Late hNav1.5 Na+ current inhibition, Mean: -14.8%
Late hNav1.5; site_platform s13_p2
  log IC50, late hNav1.5 inhibition: no inh.
Late hNav1.5; [5]
  Late hNav1.5 Na+ current inhibition, Mean: 20.9%
Late hNav1.5; [6]
  Late hNav1.5 Na+ current inhibition, Mean: 9.2%
Late hNav1.5; site_platform s14_p1
  log IC50, late hNav1.5 inhibition: no inh.
Late hNav1.5; [7]
  Late hNav1.5 Na+ current inhibition, Mean: 40.9%
Late hNav1.5; [8]
  Late hNav1.5 Na+ current inhibition, Mean: 20.2%
hERG
  hERG K+ current nH, Hill slope: 1.05
hERG; max conc [mol/L]: bep 3.00E-07, cpz 3.00E-06, cis 3.00E-07, dil 1.00E-04, dof 1.00E-07, mex 1.00E-04, ond 1.00E-05, qui 1.00E-05, ran 1.00E-04, sot 3.00E-04, ter 3.00E-07, ver 1.00E-06
  hERG K+ current inhibition, Mean, at maximal concentration: 95.5%
hERG; min conc [mol/L]: bep 1.00E-08, cpz 1.00E-07, cis 1.00E-09, dil 3.00E-06, dof 1.00E-09, mex 1.00E-06, ond 3.00E-07, qui 1.00E-07, ran 3.00E-06, sot 1.00E-05, ter 1.00E-08, ver 3.00E-08
  hERG K+ current inhibition, Mean, at minimal concentration: 25.3%
hCav1.2
  pIC50: 3.81
